Laboratory results taken from patent US9272980B2, “Anticancer agent” (KTN BioTec, Inc., priority 2014, dated 2016).

Assays:
[1] = system: human malignant pleural mesothelioma cell lines (NCI-H28, NCI-H2052, NCI-H2452 and MSTO-211H cells); assay: MTT cell viability assay, malignant mesothelioma cell lines; type: cell-based; details: 24 hr
Description: Cancer cells (NCI-H28, NCI-H2052, NCI-H2452 and MSTO-211H) treated or not treated with a given concentration of each test compound for 24 hr were subjected to MTT assay. […] As a control, MTT intensity of the cells not treated with any of naftopidil and the aryloxy derivative of the present invention was used.
NCI-H28, NCI-H2052, NCI-H2452 and MSTO-211H cells were used as human malignant pleural mesothelioma cell lines. These cells were purchased from American Type Culture Collection (Manassas, Va., USA). The cells were cultured in RPMI (Roswell Park Memorial Institute)-1640 medium added with 0.003% (W/V) L-glutamine.
(§1) In all cultures, the medium was supplied with 10% (v/v) heat inactivated bovine serum, penicillin (final concentration 100 U/ml) and streptomycin (final concentration 0.1 mg/ml), and culture was performed at 37° C. under humidification atmosphere of 5% CO2 and 95% air.
(§2) The cell viability was measured by a method using MTT (3-(4,5-dimethyl-2-thiazolyl)-2,5-diphenyl-2H-tetrazolium bromide) in the same manner as in a published report (Cell Physiol Biochem 2012; 30: 61-74).

[2] = system: human prostate cancer cell lines (DU145, LNCap, and PC-3 cells); assay: MTT cell viability assay, prostate cancer cell lines; type: cell-based; details: 1-100 μM, 24 hr
Description: (§3) The following cell lines treated or not treated with a given concentration of HUHS1015 for 24 hr were subjected to MTT assay. (A) lung cancer cell line (B) liver cancer cell line (C) gastric cancer cell line (D) bladder cancer cell line (E) prostate cancer cell line (F) kidney cancer cell line. […] As a control, MTT intensity of the cells not treated with HUHS1015 was used.
DU145 cells, LNCap cells and PC-3 cells were used as human prostate cancer cell lines. These cells were purchased from American Type Culture Collection. The DU145 cells were cultured in DMEM. The LNCaP and PC-3 cells were cultured in RPMI-1640 medium.
as §1, §2

[3] = system: MKN45 gastric cancer cells; assay: Growth of subcutaneously inoculated MKN45 gastric cancer cells in nude mouse; type: in vivo; details: nude BALB/c-nu/nu mouse, MKN45 subcutaneous, 0.23 mg/mouse 25 μM intraperitoneal twice per week, day 33
Protocol: MKN45 gastric cancer cells were subcutaneously inoculated into the flank of mouse, and 1 week later (day 0), 25 μM of HUHS1015 and 25 μM of naftopidil were intraperitoneally administered (twice/1 week). As a control, a mouse administered with saline was used. The time-course changes (A) of the tumor volume (mean±SEM, n=7) and the results (B) of tumor weight (mean±SEM, n=7) after the lapse of 33 days are shown. P value, Dunnett's test. NS, not significant
Nude BALB/c-nu/nu mouse (male, 6 week-old) was purchased from Japan SLC, Inc. (Shizuoka, Japan). MKN45 cells (1×10^7 cells) were suspended in a culture medium (200 μl) containing Matrigel (BD Biosciences, San Jose, Calif., USA) and subcutaneously inoculated to the flank of the mouse under general anesthesia with pentobarbital. HUHS1015 (0.23 mg/mouse 25 μM) or naftopidil (0.25 mg/mouse 25 μM) was diluted with saline. At 1 week (Day 0) after inoculation, intraperitoneal administration of saline, HUHS1015 or naftopidil twice per week was started. The longitudinal length (L) and transverse length (S) of the inoculated tumor were measured with calipers, and the tumor volume (V) was calculated from the following formula: V=L×S^2×1/2 The mouse was sacrificed on day 33, the tumor was isolated and the weight thereof was measured.

[4] = system: human gastric cancer cell lines (MKN-28 and MKN-45 cells); assay: MTT cell viability assay, gastric cancer cell lines; type: cell-based; details: MKN-28, MKN-45 cells, 1-100 μM, 24 hr
Description: as §3
MKN-28 cells and MKN-45 cells were used as human gastric cancer cell lines. These cells were obtained from Dr. Tatematsu (Nagoya University, Japan) and cultured in RPMI-1640 medium.
as §1, §2

[5] = system: human bladder cancer cell lines (253J, 5637, KK-47, TCCSUP, T24, and UM-UC-3 cells); assay: MTT cell viability assay, bladder cancer cell lines; type: cell-based; details: T24, UM-UC-3 cells, 1-100 μM, 24 hr
Description: as §3
253J cells, 5637 cells, KK-47 cells, TCCSUP cells, T24 cells and UM-UC-3 cells were used as human bladder cancer cell lines.
KK-47 cells were provided by Dr. Naito (Department of Urology, Kyushu University, Fukuoka, Japan). 253J cells, 5637 cells, TCCSUP cells, T24 cells and UM-UC-3 cells were purchased from American Type Culture Collection (Manassas, Va., USA). All cells were cultured in RPMI-1640 medium.
as §1, §2

[6] = system: human liver cancer cell lines (HepG2 and HuH-7 cells); assay: MTT cell viability assay, liver cancer cell lines; type: cell-based; details: HepG2, HuH-7 cells, 1-100 μM, 24 hr
Description: as §3
HepG2 cells and HuH-7 cells were used as human […] cancer cell lines. These cells were obtained from RIKEN cell bank (Ibaraki, Japan) and cultured in DMEM (Dulbecco's Modified Eagles Medium).
as §1, §2

[7] = system: human lung cancer cell lines (A549, SBC-3, and Lu-65 cells); assay: MTT cell viability assay, lung cancer cell lines; type: cell-based; details: A549, SBC-3, Lu-65 cells, 1-100 μM, 24 hr
Description: as §3
A549, SBC-3 and Lu-65 cells were used as human lung cancer cell lines. These cells were purchased from Health Science Research Resources Bank (Osaka, Japan). A549 cells and SBC-3 cells were cultured in MEM (minimum essential medium) added with 0.1 mM non-essential amino acid, and Lu-65 cells were cultured in RPMI-1640 medium.
as §1, §2

[8] = system: human kidney cancer cell lines (ACHN, RCC4-VHL, and 786-O cells); assay: MTT cell viability assay, kidney cancer cell lines; type: cell-based; details: 1-100 μM, 24 hr
Description: as §3
ACHN cells, RCC4-VHL cells and 786-O cells were used as human kidney cancer cell lines. These cells were purchased from European Collection of Animal Cell Cultures (ECACC; Salisbury, UK), and cultured in DMEM.
as §1, §2

[9] = malignant mesothelioma cell lines, 1-100 μM

COc1ccccc1N1CCN(CC(O)COc2cccc3ccccc23)CC1 (racemic) [naftopidil, (±)-1-[4-(2-methoxyphenyl)piperazinyl]-3-(1-naphthyloxy)propan-2-ol, reference compound]
cell viability (MTT) ([1]; all examined malignant mesothelioma cell lines, 1-100 μM): reduced the cell viability in a concentration dependent manner
cell viability (MTT) ([1]; malignant mesothelioma cell lines, concentration of 100 µM, % control): ~0%

COc1cccc(N2CCN(CC(O)COc3cccc4ccccc34)CC2)c1 (stereo not shown) [HUHS1002, 1-(4-(3-methoxyphenyl)piperazinyl)-3-(1-naphthyloxyl)propan-2-ol, reference compound]
activity in reducing cell viability (MTT) [1, 9]: high activity

OC(COc1cccc2ccccc12)CN1CCN(c2ccccc2)CC1 (stereo not shown) [HUHS1004, 3-(1-naphthyloxy)-1-(4-phenylpiperazinyl)propan-2-ol]
activity in reducing cell viability (MTT) [1, 9]: high activity

OC(COc1cccc2ccccc12)CN1CCN(c2ccccc2Cl)CC1 (stereo not shown) [HUHS1014, 1-(4-(2-chlorophenyl)piperazinyl)-3-(1-naphthyloxy)-propan-2-ol]
activity in reducing cell viability (MTT) [1, 9]: high activity

COc1ccccc1NCCNCC(O)COc1cccc2ccccc12 (stereo not shown) [HUHS1015, 1-((2-((2-methoxyphenyl)amino)ethyl)amino)-3-(1-naphthyloxy)propan-2-ol]
cell viability (MTT) [2]: reduced the cell viability in a concentration dependent manner
antitumor effect on gastric cancer (tumor volume, tumor weight) [3]: superior to naftopidil
activity in reducing cell viability (MTT) [1, 9]: high activity
cell viability (MTT) [4]: reduced the cell viability in a concentration dependent manner
cell viability (MTT) [5]: reduced the cell viability in a concentration dependent manner
cell viability (MTT) [6]: reduced the cell viability in a concentration dependent manner
cell viability (MTT) [7]: reduced the cell viability in a concentration dependent manner
cell viability (MTT) [8]: reduced the cell viability in a concentration dependent manner

COc1ccccc1C1CCN(CC(O)COc2cccc3ccccc23)CC1 (stereo not shown) [HUHS1017, 1-(4-(2-methoxyphenyl)piperidin-1-yl)-3-(1-naphthyloxyl)propan-2-ol]
activity in reducing cell viability (MTT) [1, 9]: high activity

CCCCCCCN1CCN(CC(O)COc2cccc3ccccc23)CC1 (stereo not shown) [HUHS1018, 1-(4-heptylpiperazinyl)-3-(1-naphthyloxyl)propan-2-ol]
activity in reducing cell viability (MTT) [1, 9]: high activity

CCCCCCCCN1CCN(CC(O)COc2cccc3ccccc23)CC1 (stereo not shown) [HUHS1019, 3-(1-naphthyloxy)-1-(4-octylpiperazinyl)propan-2-ol]
activity in reducing cell viability (MTT) [1, 9]: high activity
